Results reported in US12264134B2 (Merck Sharp & Dohme LLC, priority 2018, dated 2025).

Target: IDO1 (Homo sapiens, UniProt P14902)
Assay: IDO1 Cellular Assay in HeLa Cells Stimulated with IFNγ
Format: cell-based
Conditions: read-out: HeLa Cell Potency, IC50

Sequence of IDO1 (P14902 whole entry): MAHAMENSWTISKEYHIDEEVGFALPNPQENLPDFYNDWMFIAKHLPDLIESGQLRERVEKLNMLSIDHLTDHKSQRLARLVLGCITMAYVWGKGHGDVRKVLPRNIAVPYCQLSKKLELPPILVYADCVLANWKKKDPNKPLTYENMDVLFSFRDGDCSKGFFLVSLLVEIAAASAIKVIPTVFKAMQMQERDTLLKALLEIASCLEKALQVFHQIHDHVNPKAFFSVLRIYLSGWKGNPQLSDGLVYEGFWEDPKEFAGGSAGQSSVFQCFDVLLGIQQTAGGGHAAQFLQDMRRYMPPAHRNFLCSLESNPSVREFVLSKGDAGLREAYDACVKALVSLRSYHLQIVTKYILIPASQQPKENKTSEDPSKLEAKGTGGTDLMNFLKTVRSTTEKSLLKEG

Row | SMILES | IC50 [nM]
1 | Cc1cccc(N2CCN(C(=O)Cn3nc(C(=O)N4CCC(O)C(F)(F)C4)c4c3CCC4)CC2)c1C (stereo not drawn) [Example 205, 2-[3-(3,3-difluoro-4-hydroxy-piperidine-1-carbonyl)-5,6-dihydro-4H-cyclopenta[c]pyrazol-1-yl]-1-[4-(2,3-dimethylphenyl)piperazin-1-yl]ethanone] | 17.1
2 | Cc1cccc(N2CCN(C(=O)Cn3nc(C(=O)N4CC[C@@H](N)[C@H](F)C4)c4c3CCC4)CC2)c1C [Example 207, [(3R,4R)-1-[1-[2-[4-(2,3-dimethylphenyl)piperazin-1-yl]-2-oxo-ethyl]-5,6-dihydro-4H-cyclopenta[c]pyrazole-3-carbonyl]-3-fluoro-4-piperidyl]ammonium;formate] | 28
3 | Cc1cccc(N2CCN(C(=O)Cn3nc(C(=O)N4CC[C@H](N)[C@H](F)C4)c4c3CCC4)CC2)c1C [Example 211, [(3R,4S)-1-[1-[2-[4-(2,3-dimethylphenyl)piperazin-1-yl]-2-oxo-ethyl]-5,6-dihydro-4H-cyclopenta[c]pyrazole-3-carbonyl]-3-fluoro-4-piperidyl]ammonium;formate] | 72.1
4 | Cc1cccc(N2CCN(C(=O)Cn3nc(C(=O)N4CCC(F)(F)C(O)C4)c4c3CCC4)CC2)c1C (stereo not drawn) [Example 212, 2-[3-(4,4-difluoro-3-hydroxy-piperidine-1-carbonyl)-5,6-dihydro-4H-cyclopenta[c]pyrazol-1-yl]-1-[4-(2,3-dimethylphenyl)piperazin-1-yl]ethanone] | 79.9
5 | Cc1cccc(N2CCN(C(=O)Cn3nc(C(=O)N4CC[C@@H](N)[C@@H](F)C4)c4c3CCC4)CC2)c1C [Example 214, [(3S,4R)-1-[1-[2-[4-(2,3-dimethylphenyl)piperazin-1-yl]-2-oxo-ethyl]-5,6-dihydro-4H-cyclopenta[c]pyrazole-3-carbonyl]-3-fluoro-4-piperidyl]ammonium;formate] | 105
6 | Cc1cccc(N2CCN(C(=O)Cn3nc(C(=O)N4CCCCC45CC5)c4c3C[C@H]3C[C@@H]43)CC2)c1C [Example 215, 2-[(3bR,4aSR)-3-(4-azaspiro[2.5]octane-4-carbonyl)-3b,4,4a,5-tetrahydro-1H-cyclopropa[3,4]cyclopenta[1,2-c]pyrazol-1-yl]-1-[4-(2,3-dimethylphenyl)piperazin-1-yl]ethan-1-one] | 1.38
7 | Cc1cccc(N2CCN(C(=O)Cn3nc(C(=O)N4CCC(O)CC4(C)C)c4c3C[C@H]3C[C@@H]43)CC2)c1C (stereo partly drawn) [Example 216, 1-[4-(2,3-dimethylphenyl)piperazin-1-yl]-2-[(3bR,4aR)-3-(4-hydroxy-2,2-dimethylpiperidine-1-carbonyl)-3b,4,4a,5-tetrahydro-1H-cyclopropa[3,4]cyclopenta[1,2-c]pyrazol-1-yl]ethan-1-one] | 7.25
8 | CNC(=O)NC1CCN(C(=O)c2nn(CC(=O)N3CCN(c4cccc(C)c4C)CC3)c3c2[C@@H]2C[C@@H]2C3)CC1 [Example 217, 1-(1-((3bR,4aR)-1-(2-(4-(2,3-dimethylphenyl)piperazin-1-yl)-2-oxoethyl)-3b,4,4a,5-tetrahydro-1H-cyclopropa[3,4]cyclopenta[1,2-c]pyrazole-3-carbonyl)piperidin-4-yl)-3-methylurea] | 2.1
9 | Cc1cccc(N2CCN(C(=O)Cn3nc(C(=O)N4CC[C@@H]5[C@H](CCC(=O)N5C)C4)c4c3C[C@H]3C[C@@H]43)CC2)c1C [Example 218, (4aR,8aR)-6-((3bR,4aR)-1-(2-(4-(2,3-dimethylphenyl)piperazin-1-yl)-2-oxoethyl)-3b,4,4a,5-tetrahydro-1H-cyclopropa[3,4]cyclopenta[1,2-c]pyrazole-3-carbonyl)-1-methyloctahydro-1,6-naphthyridin-2(1H)-one] | 0.64
10 | Cc1cccc(N2CCN(C(=O)Cn3nc(C(=O)N4CCC5(CC4)CC(=O)N5)c4c3C[C@H]3C[C@@H]43)CC2)c1C [Example 219, 7-[(3bR,4aR)-1-{2-[4-(2,3-dimethylphenyl)piperazin-1-yl]-2-oxoethyl}-3b,4,4a,5-tetrahydro-1H-cyclopropa[3,4]cyclopenta[1,2-c]pyrazole-3-carbonyl]-1,7-diazaspiro[3.5]nonan-2-one] | 0.86
11 | Cc1cccc(N2CCN(C(=O)Cn3nc(C(=O)N4CCC(C)(C(N)=O)CC4)c4c3C[C@H]3C[C@@H]43)CC2)c1C [Example 220, 1-[(3bR,4aR)-1-{2-[4-(2,3-dimethylphenyl)piperazin-1-yl]-2-oxoethyl}-3b,4,4a,5-tetrahydro-1H-cyclopropa[3,4]cyclopenta[1,2-c]pyrazole-3-carbonyl]-4-methylpiperidine-4-carboxamide] | 1.53
12 | Cc1cccc(N2CCN(C(=O)Cn3nc(C(=O)N4CCC(CO)(CO)CC4)c4c3C[C@H]3C[C@@H]43)CC2)c1C [Example 221, 2-{(3bR,4aR)-3-[4,4-bis(hydroxymethyl)piperidine-1-carbonyl]-3b,4,4a,5-tetrahydro-1H-cyclopropa[3,4]cyclopenta[1,2-c]pyrazol-1-yl}-1-[4-(2,3-dimethylphenyl)piperazin-1-yl]ethan-1-one] | 3.76
13 | Cc1cccc(N2CCN(C(=O)Cn3nc(C(=O)N4CCC(NS(N)(=O)=O)CC4)c4c3C[C@H]3C[C@@H]43)CC2)c1C [Example 222, N-{1-[(3bR,4aR)-1-{2-[4-(2,3-dimethylphenyl)piperazin-1-yl]-2-oxoethyl}-3b,4,4a,5-tetrahydro-1H-cyclopropa[3,4]cyclopenta[1,2-c]pyrazole-3-carbonyl]piperidin-4-yl}sulfuric diamide] | 6.23
14 | Cc1cccc(N2CCN(C(=O)Cn3nc(C(=O)N4CC[C@@H](C#N)C4)c4c3C[C@H]3C[C@@H]43)CC2)c1C [Example 223, (3R)-1-[(3bR,4aR)-1-{2-[4-(2,3-dimethylphenyl)piperazin-1-yl]-2-oxoethyl}-3b,4,4a,5-tetrahydro-1H-cyclopropa[3,4]cyclopenta[1,2-c]pyrazole-3-carbonyl] pyrrolidine-3-carbonitrile] | 1.49
15 | Cc1cccc(N2CCN(C(=O)Cn3nc(C(=O)N4CCCC5(C4)NC(=O)NC5=O)c4c3C[C@H]3C[C@@H]43)CC2)c1C (stereo partly drawn) [Example 224, 7-[(3bR,4aR)-1-{2-[4-(2,3-dimethylphenyl)piperazin-1-yl]-2-oxoethyl}-3b,4,4a,5-tetrahydro-1H-cyclopropa[3,4]cyclopenta[1,2-c]pyrazole-3-carbonyl]-1,3,7-triazaspiro[4.5]decane-2,4-dione] | 16.5
16 | Cc1cccc(N2CCN(C(=O)Cn3nc(C(=O)N4CCCC(N5CCCC5=O)C4)c4c3C[C@H]3C[C@@H]43)CC2)c1C (stereo partly drawn) [Example 225, 1-{1-[(3bR,4aR)-1-{2-[4-(2,3-dimethylphenyl)piperazin-1-yl]-2-oxoethyl}-3b,4,4a,5-tetrahydro-1H-cyclopropa[3,4]cyclopenta[1,2-c]pyrazole-3-carbonyl]piperidin-3-yl}pyrrolidine-2-one] | 3.93
17 | Cc1cccc(N2CCN(C(=O)Cn3nc(C(=O)N4CCCC(N5CCNC5=O)C4)c4c3C[C@H]3C[C@@H]43)CC2)c1C (stereo partly drawn) [Example 226, 1-{1-[(3bR,4aR)-1-{2-[4-(2,3-dimethylphenyl)piperazin-1-yl]-2-oxoethyl}-3b,4,4a,5-tetrahydro-1H-cyclopropa[3,4]cyclopenta[1,2-c]pyrazole-3-carbonyl]piperidin-3-yl}imidazolidin-2-one] | 6.33
18 | Cc1cccc(N2CCN(C(=O)Cn3nc(C(=O)N4CCC5(CC4)CNC(=O)N5C)c4c3C[C@H]3C[C@@H]43)CC2)c1C [Example 227, 8-[(3bR,4aR)-1-{2-[4-(2,3-dimethylphenyl)piperazin-1-yl]-2-oxoethyl}-3b,4,4a,5-tetrahydro-1H-cyclopropa[3,4]cyclopenta[1,2-c]pyrazole-3-carbonyl]-1-methyl-1,3,8-triazaspiro[4.5]decan-2-one] | 2.19
19 | Cc1cccc(N2CCN(C(=O)Cn3nc(C(=O)N4CCC(N5CCCC5=O)CC4)c4c3C[C@H]3C[C@@H]43)CC2)c1C [Example 228, 1-{2-[(3bR,4aR)-1-{2-[4-(2,3-dimethylphenyl)piperazin-1-yl]-2-oxoethyl}-3b,4,4a,5-tetrahydro-1H-cyclopropa[3,4]cyclopenta[1,2-c]pyrazole-3-carbonyl]piperidin-4-yl}pyrrolidin-2-one] | 1
20 | Cc1cccc(N2CCN(C(=O)Cn3nc(C(=O)N4CC[C@@H](O)C[C@H]4C)c4c3C[C@H]3C[C@@H]43)CC2)c1C [Example 231, 1-[4-(2,3-dimethylphenyl)piperazin-1-yl]-2-{(3bR,4aR)-3-[(2R,4R)-4-hydroxy-2-methylpiperidine-1-carbonyl]-3b,4,4a,5-tetrahydro-1H-cyclopropa[3,4]cyclopenta[1,2-c]pyrazol-1-yl}ethan-1-one] | 4.38
21 | Cc1cccc(N2CCN(C(=O)Cn3nc(C(=O)N4CC5(CNC5)C4)c4c3C[C@H]3C[C@@H]43)CC2)c1C [Example 232, 2-[(3bR,4aR)-3-(2,6-diazaspiro[3.3]heptane-2-carbonyl)-3b,4,4a,5-tetrahydro-1H-cyclopropa[3,4]cyclopenta[1,2-c]pyrazol-1-yl]-1-[4-(2,3-dimethylphenyl)piperazin-1-yl]ethan-1-one] | 61.4
22 | Cc1cccc(N2CCN(C(=O)Cn3nc(C(=O)N4CCC(C(F)F)C4)c4c3C[C@H]3C[C@@H]43)CC2)c1C (stereo partly drawn) [Example 233, 2-{(3bR,4aR)-3-[3-(difluoromethyl)pyrrolidine-1-carbonyl]-3b,4,4a,5-tetrahydro-1H-cyclopropa[3,4]cyclopenta[1,2-c]pyrazol-1-yl}-1-[4-(2,3-dimethylphenyl)piperazin-1-yl]ethan-1-one] | 2.33
23 | Cc1cccc(N2CCN(C(=O)Cn3nc(C(=O)N4CCC5NCC5C4)c4c3C[C@H]3C[C@@H]43)CC2)c1C (stereo partly drawn) [Example 236, 2-[(3bR,4aR)-3-(3,7-diazaspiro[4.2.0]octane-3-carbonyl)-3b,4,4a,5-tetrahydro-1H-cyclopropa[3,4]cyclopenta[1,2-c]pyrazol-1-yl]-1-[4-(2,3-dimethylphenyl)piperazin-1-yl]ethan-1-one] | 55
24 | Cc1cccc(N2CCN(C(=O)Cn3nc(C(=O)N4CC[C@H]5[C@@H](C4)NC(=O)N5C)c4c3C[C@H]3C[C@@H]43)CC2)c1C [Example 237, (3aR,7aS)-5-[(3bR,4aR)-1-{2-[4-(2,3-dimethylphenyl)piperazin-1-yl]-2-oxoethyl}-3b,4,4a,5-tetrahydro-1H-cyclopropa[3,4]cyclopenta[1,2-c]pyrazole-3-carbonyl]-1-methyloctahydro-2H-imidazo[4,5-c]pyridin-2-one] | 79.1
